Here are results for two molecules from patent US10463594B2, “Cosmetic composition” (AJINOMOTO CO., INC., priority 2012, dated 2019).

Data set [1] deals with hair. Briefly: Observation of hair damage (microscopic images ×400). As to conditions: 3 min after injection of sample. The method, then:
In the test of the above-mentioned 1, the condition of the hair 3 min after injection of ion exchange water, protein-glutaminase solution, or 1% aqueous ammonia was observed.

Data set [2] has as its system hair. The data set can be described thus: Measurement of swelling degree of hair. As to conditions: 100×(D1−D0)/D0 of hair diameter. Here is the method: Hair was immobilized in a concave part of a glass slide for biochemical count having a depth of the concave part of 200 μm (manufactured by NIPPON Genetics Co, Ltd.), a cover glass was placed on the glass slide to cover the concave part, the diameter of the hair was measured 10-14 times, and the mean thereof was calculated (D0). Thereafter, a sample was injected from the clearance between the cover glass and the glass slide, and left standing for 3 min or 5 min. The diameter of the hair was measured 10-14 times, and the mean was calculated (D1).
As the sample, ion exchange water, phosphate buffer (pH 6.2), protein-glutaminase solution (6.2 mg/mL, pH 6.2) and 1% aqueous ammonia (pH 11.8) were used. The swelling degree was calculated from the measured diameters of the hair (D0 and D1) according to the following formula. swelling degree (%)=100×(D1−D0)/D0

Data set [3] has as its system 3D cultured human skin model: TESTSKIN LSE-high. The data set can be described thus: Permeability of FITC-labeled Gly-Gly-Gly to artificial cultured skin. The format is cell-based. The note with it: protein-glutaminase solution 4 mg/ml, 100 μl, 37° C. 30 min before peptide; measured after 2, 5, 20 hr; versus phosphate buffer (−). The method, then:
Using glycylglycylglycine (hereinafter indicated as “Gly-Gly-Gly”) (manufactured by PEPTIDE INSTITUTE, INC.) as a peptide to be evaluated for skin permeability, the permeability of Gly-Gly-Gly to commercially available artificial cultured skin (3D cultured human skin model: TESTSKIN LSE-high, manufactured by Toyobo Co., Ltd.) was evaluated. Gly-Gly-Gly was labeled with fluorescein by using fluorescein isothiocyanate (FITC-I, manufactured by Chemical-Dojin Co., Ltd.) to enable highly sensitive detection.
The cultured skin is cultured on a polycarbonate membrane on the bottom of a transwell, and set on a 6-well assay plate. […] The permeability was evaluated by measuring the amount of FITC-labeled Gly-Gly-Gly that permeated the cultured skin to move into phosphate buffer (−).
First, a protein-glutaminase solution (4 mg/ml, 100 μl) was added to the top of the cultured skin and incubated at 37° C. for 30 min, after which a FITC-labeled Gly-Gly-Gly sample (100 μl) was added to the top of the cultured skin. After 2, 5, and 20 hr, the amount of FITC-labeled Gly-Gly-Gly that permeated the cultured skin and moved into phosphate buffer (−) was measured. […] The fluorescence intensity was measured under the conditions of exciting wavelength 492 nm and fluorescence wavelength 520 nm. The fluorescence intensity was measured using platereader SpectraMaxM2 (manufactured by Molecular Devices, LLC.).

The test system of a further data set is perm-treated hair. Briefly: Quantification of free ammonia produced by reaction of protein-glutaminase with perm-treated hair. It is filed as biochemical, human. As to conditions: 37° C., 1 hr. Here is the method: Hair of Japanese women in their 20's was perm-treated and used as an experiment sample. The perm treatment included 1) immersing the hair in first perm liquid at 33° C. for 15 min and rinsing the first liquid with tap water at 35-40° C., and 2) immersing the hair in second perm liquid at 33° C. for 15 min and sufficiently rinsing same with tap water at 35-40° C. The continuous operation of 1) and 2) was repeated 4 times, and the hair was washed with 15% sodium laureth sulfate (EMAL E27C; Kao Corporation) and sufficiently rinsed with tap water at 35-40° C. The hair was immersed in a buffer, and treated with occasional stirring at room temperature for 10 min. The hair was combed out, hung while avoiding overlapped hair, and dried in a thermo-hygrostat room (23° C., 40% R.H.).
Using an Ammonia test kit (manufactured by Wako Pure Chemical Industries, Ltd.), the amount of free ammonia produced by reaction of protein-glutaminase with the above-mentioned perm-treated hair was quantified.
The protein-glutaminase solution (2 ml) at a concentration shown in Table 4 was added to a bundle of the above-mentioned perm-treated hair (0.25 g), and the amount of ammonia in a sample after reaction at 37° C. for 1 hr was measured. The amount of ammonia produced was shown as a value after subtraction of the amount of ammonia produced without addition of protein-glutaminase (Comparative Example 4).

Consider `N` [Comparative Example 3, 1% aqueous ammonia], for which the “condition of the hair (hair damage)” value in the data set with hair [1] is listed as “cuticles on the hair surface were lifted”. For the same molecule, the “swelling degree (%) after 3 min” value with hair [2] (hair left standing in sample for 3 min) is on record as 11.1%. For the same molecule, the “swelling degree (%) after 5 min” value in the data set with hair [2] (hair left standing in sample for 5 min) is 11.3%.

B1: protein-glutaminase: protein-glutaminase of Chryseobacterium proteolyticum, secretory-expressed in Corynebacterium glutamicum, activated by protease, purified, dissolved in phosphate buffer (protein, listed as Chryseobacterium proteolyticum)
chain: LASVIPDVATLNSLFNQIKNQSCGTSTASSPCITFRYPVDGCYARAHKMRQILMNNGYDCEKQFVYGNLKASTGTCCVAWSYHVAILVSYKNASGVTEKRIIDPSLFSSGPVTDTAWRNACVNTSCGSASVSSYANTAGNVYYRSPSNSYLYDNNLINTNCVLTKFSLLSGCSPSPAPDVSSCGF
As for B1, the “permeability of FITC-labeled Gly-Gly-Gly through cultured skin (fluorescence intensity)” value in data set [3] is on record as “improved permeability of peptide”. Besides, the “concentration of protein-glutaminase solution at which it reacted with perm-treated hair” value with perm-treated hair was “not less than 0.01 mg/ml”.
